In patent US9738634B2, “Heterocyclic amide compound and herbicide” (SYNGENTA PARTICIPATIONS AG, priority 2013, dated 2017):

Assays:
Type in all cases: in vivo
[1] = system: rapeseed; assay: Test Example 3: soil treatment, effect on crop; g: rapeseed; conditions: soil treatment, treatment dosage 315 g/ha
How it was run: (§1)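 Crop and weed responses were judged three weeks after a uniform surface spray of the water-diluted emulsion at the given g/ha rate. Seeds sat beneath about 1.5 cm of sterilized diluvial soil, and boxes stood in a greenhouse at 25 to 30° C.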

[2] = system: catchweed; assay: Test Example 3: weedkilling efficacy through soil treatment; O: catchweed; conditions: soil treatment, treatment dosage 315 g/ha
How it was run: as §1

[3] = system: wild oat; assay: Test Example 3: weedkilling efficacy through soil treatment; G: wild oat; conditions: soil treatment, treatment dosage 315 g/ha
How it was run: as §1

[4] = system: birds-eye speedwell; assay: Test Example 3: weedkilling efficacy through soil treatment; p: birds-eye speedwell; conditions: soil treatment, treatment dosage 315 g/ha
How it was run: as §1

[5] = system: chickweed; assay: Test Example 3: weedkilling efficacy through soil treatment; N: chickweed; conditions: soil treatment, treatment dosage 315 g/ha
How it was run: as §1

[6] = system: green foxtail; assay: Test Example 3: weedkilling efficacy through soil treatment; E: green foxtail; conditions: soil treatment, treatment dosage 315 g/ha
How it was run: as §1

[7] = system: wheat; assay: Test Example 3: soil treatment, effect on crop; e: wheat; conditions: soil treatment, treatment dosage 315 g/ha
How it was run: as §1

[8] = system: black-grass; assay: Test Example 3: weedkilling efficacy through soil treatment; H: black-grass; conditions: soil treatment, treatment dosage 315 g/ha
How it was run: as §1

[9] = system: common wind-grass; assay: Test Example 3: weedkilling efficacy through soil treatment; J: common wind-grass; conditions: soil treatment, treatment dosage 315 g/ha
How it was run: as §1

[10] = system: transplanted rice; assay: Test Example 1: preemergent weed treatment in the submerged state, effect on crop; a: transplanted rice
How it was run: (§2)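 Pots of alluvial soil flooded 4 cm deep, sown with barnyard grass, bulrush and oval-leafed pondweed and transplanted with 2.5-leaf rice. Emulsified compound applied to the water surface on sowing day at stated g/ha; greenhouse 25–30 °C, effects assessed 3 weeks after treatment.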

[11] = system: bulrush; assay: Test Example 1: weedkilling efficacy, preemergent weed treatment in the submerged state; B: bulrush
How it was run: as §2

[12] = system: barnyard grass; assay: Test Example 1: weedkilling efficacy, preemergent weed treatment in the submerged state; A: barnyard grass
How it was run: as §2

[13] = system: bulrush; assay: Test Example 2: weedkilling efficacy, growth period weed treatment in the submerged state; B: bulrush
How it was run: (§3)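 Barnyard grass, bulrush and oval-leafed pondweed sown in alluvial soil under 4 cm flooding, greenhouse 25 to 30° C. At 1-2 leaf stage, water-diluted emulsion applied to the water surface at stated g/ha dosages; effects scored 3 weeks later.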

[14] = system: Italian ryegrass; assay: Test Example 3: weedkilling efficacy through soil treatment; I: Italian ryegrass; conditions: soil treatment, treatment dosage 315 g/ha
How it was run: as §1

[15] = system: directly sown rice; assay: Test Example 3: soil treatment, effect on crop; b: directly sown rice; conditions: soil treatment, treatment dosage 315 g/ha
How it was run: as §1

[16] = system: soybean; assay: Test Example 3: soil treatment, effect on crop; d: soybean; conditions: soil treatment, treatment dosage 315 g/ha
How it was run: as §1

[17] = system: crabgrass; assay: Test Example 3: weedkilling efficacy through soil treatment; D: crabgrass; conditions: soil treatment, treatment dosage 315 g/ha
How it was run: as §1

[18] = system: barnyard grass; assay: Test Example 2: weedkilling efficacy, growth period weed treatment in the submerged state; A: barnyard grass
How it was run: as §3

[19] = system: redroot pigweed; assay: Test Example 3: weedkilling efficacy through soil treatment; L: redroot pigweed; conditions: soil treatment, treatment dosage 315 g/ha
How it was run: as §1

[20] = system: oval-leafed pondweed; assay: Test Example 2: weedkilling efficacy, growth period weed treatment in the submerged state; C: oval-leafed pondweed
How it was run: as §3

[21] = system: Indian mallow; assay: Test Example 3: weedkilling efficacy through soil treatment; K: Indian mallow; conditions: soil treatment, treatment dosage 315 g/ha
How it was run: as §1

[22] = system: barnyard grass; assay: Test Example 3: weedkilling efficacy through soil treatment; F: barnyard grass; conditions: soil treatment, treatment dosage 315 g/ha
How it was run: as §1

[23] = system: oval-leafed pondweed; assay: Test Example 1: weedkilling efficacy, preemergent weed treatment in the submerged state; C: oval-leafed pondweed
How it was run: as §2

[24] = system: corn; assay: Test Example 3: soil treatment, effect on crop; c: corn; conditions: soil treatment, treatment dosage 315 g/ha
How it was run: as §1

[25] = system: beet; assay: Test Example 3: soil treatment, effect on crop; f: beet; conditions: soil treatment, treatment dosage 315 g/ha
How it was run: as §1

## COc1cc(Cl)nc(NC(=O)C(C)(C)N2COCN(c3ccccc3)C2=O)c1 [A-2-33]
[1]
  g: rapeseed, effect on crop grade: 3 (weed kill ratio 40% or more, less than 70%)
[2]
  O: catchweed, weedkilling efficacy grade: 5 (weed kill ratio 90% or more, (practically complete withering))
[3]
  G: wild oat, weedkilling efficacy grade: 4 (weed kill ratio 70% or more, less than 90%)
[4]
  P: birds-eye speedwell, weedkilling efficacy grade: 5 (weed kill ratio 90% or more, (practically complete withering))
[5]
  N: chickweed, weedkilling efficacy grade: 4 (weed kill ratio 70% or more, less than 90%)
[6]
  E: green foxtail, weedkilling efficacy grade: 5 (weed kill ratio 90% or more, (practically complete withering))
[7]
  e: wheat, effect on crop grade: 0 (weed kill ratio 5% or less (practically no effect))
[8]
  H: black-grass, weedkilling efficacy grade: 5 (weed kill ratio 90% or more, (practically complete withering))
[9]
  J: common wind-grass, weedkilling efficacy grade: 5 (weed kill ratio 90% or more, (practically complete withering))
[10]; treatment dosage 315 g/ha
  a: transplanted rice, effect on crop grade: 4 (weed kill ratio 70% or more, less than 90%)
[11]; treatment dosage 315 g/ha
  B: bulrush, weed kill grade: 5 (weed kill ratio 90% or more, (practically complete withering))
[12]; treatment dosage 315 g/ha
  A: barnyard grass, weed kill grade: 5 (weed kill ratio 90% or more, (practically complete withering))
[13]; treatment dosage 315 g/ha
  B (bulrush) weedkilling efficacy grade: 5 (weed kill ratio 90% or more, (practically complete withering))
[14]
  I: Italian ryegrass, weedkilling efficacy grade: 5 (weed kill ratio 90% or more, (practically complete withering))
[15]
  b: directly sown rice, effect on crop grade: 3 (weed kill ratio 40% or more, less than 70%)
[16]
  d: soybean, effect on crop grade: 0 (weed kill ratio 5% or less (practically no effect))
[17]
  D: crabgrass, weedkilling efficacy grade: 5 (weed kill ratio 90% or more, (practically complete withering))
[18]; treatment dosage 315 g/ha
  A (barnyard grass) weedkilling efficacy grade: 5 (weed kill ratio 90% or more, (practically complete withering))
[19]
  L: redroot pigweed, weedkilling efficacy grade: 2 (weed kill ratio 20% or more, less than 40%)
[20]; treatment dosage 315 g/ha
  C (oval-leafed pondweed) weedkilling efficacy grade: 5 (weed kill ratio 90% or more, (practically complete withering))
[21]
  K: Indian mallow, weedkilling efficacy grade: 0 (weed kill ratio 5% or less (practically no effect))
[22]
  F: barnyard grass, weedkilling efficacy grade: 4 (weed kill ratio 70% or more, less than 90%)
[23]; treatment dosage 315 g/ha
  C: oval-leafed pondweed, weed kill grade: 5 (weed kill ratio 90% or more, (practically complete withering))
[24]
  c: corn, effect on crop grade: 0 (weed kill ratio 5% or less (practically no effect))
[25]
  f: beet, effect on crop grade: 1 (weed kill ratio 5% or more, less than 20%)

## CC(C)(C(=O)Nc1cccc(CF)n1)N1COCN(c2ccccc2)C1=O [A-2-39]
[1]
  g: rapeseed, effect on crop grade: 2 (weed kill ratio 20% or more, less than 40%)
[2]
  O: catchweed, weedkilling efficacy grade: 5 (weed kill ratio 90% or more, (practically complete withering))
[3]
  G: wild oat, weedkilling efficacy grade: 4 (weed kill ratio 70% or more, less than 90%)
[4]
  P: birds-eye speedwell, weedkilling efficacy grade: 5 (weed kill ratio 90% or more, (practically complete withering))
[5]
  N: chickweed, weedkilling efficacy grade: 2 (weed kill ratio 20% or more, less than 40%)
[6]
  E: green foxtail, weedkilling efficacy grade: 5 (weed kill ratio 90% or more, (practically complete withering))
[7]
  e: wheat, effect on crop grade: 1 (weed kill ratio 5% or more, less than 20%)
[8]
  H: black-grass, weedkilling efficacy grade: 5 (weed kill ratio 90% or more, (practically complete withering))
[9]
  J: common wind-grass, weedkilling efficacy grade: 5 (weed kill ratio 90% or more, (practically complete withering))
[10]; treatment dosage 315 g/ha
  a: transplanted rice, effect on crop grade: 1 (weed kill ratio 5% or more, less than 20%)
[11]; treatment dosage 315 g/ha
  B: bulrush, weed kill grade: 5 (weed kill ratio 90% or more, (practically complete withering))
[12]; treatment dosage 315 g/ha
  A: barnyard grass, weed kill grade: 5 (weed kill ratio 90% or more, (practically complete withering))
[13]; treatment dosage 315 g/ha
  B (bulrush) weedkilling efficacy grade: 5 (weed kill ratio 90% or more, (practically complete withering))
[14]
  I: Italian ryegrass, weedkilling efficacy grade: 5 (weed kill ratio 90% or more, (practically complete withering))
[15]
  b: directly sown rice, effect on crop grade: 4 (weed kill ratio 70% or more, less than 90%)
[16]
  d: soybean, effect on crop grade: 0 (weed kill ratio 5% or less (practically no effect))
[17]
  D: crabgrass, weedkilling efficacy grade: 5 (weed kill ratio 90% or more, (practically complete withering))
[18]; treatment dosage 315 g/ha
  A (barnyard grass) weedkilling efficacy grade: 4 (weed kill ratio 70% or more, less than 90%)
[19]
  L: redroot pigweed, weedkilling efficacy grade: 0 (weed kill ratio 5% or less (practically no effect))
[20]; treatment dosage 315 g/ha
  C (oval-leafed pondweed) weedkilling efficacy grade: 4 (weed kill ratio 70% or more, less than 90%)
[21]
  K: Indian mallow, weedkilling efficacy grade: 0 (weed kill ratio 5% or less (practically no effect))
[22]
  F: barnyard grass, weedkilling efficacy grade: 5 (weed kill ratio 90% or more, (practically complete withering))
[23]; treatment dosage 315 g/ha
  C: oval-leafed pondweed, weed kill grade: 5 (weed kill ratio 90% or more, (practically complete withering))
[24]
  c: corn, effect on crop grade: 0 (weed kill ratio 5% or less (practically no effect))
[25]
  f: beet, effect on crop grade: 3 (weed kill ratio 40% or more, less than 70%)

## CC(C)(C(=O)Nc1cc(F)cc(F)n1)N1COCN(c2ccccc2)C1=O [A-2-13]
[1]
  g: rapeseed, effect on crop grade: 5 (weed kill ratio 90% or more, (practically complete withering))
[2]
  O: catchweed, weedkilling efficacy grade: 5 (weed kill ratio 90% or more, (practically complete withering))
[3]
  G: wild oat, weedkilling efficacy grade: 5 (weed kill ratio 90% or more, (practically complete withering))
[4]
  P: birds-eye speedwell, weedkilling efficacy grade: 5 (weed kill ratio 90% or more, (practically complete withering))
[5]
  N: chickweed, weedkilling efficacy grade: 5 (weed kill ratio 90% or more, (practically complete withering))
[6]
  E: green foxtail, weedkilling efficacy grade: 5 (weed kill ratio 90% or more, (practically complete withering))
[7]
  e: wheat, effect on crop grade: 5 (weed kill ratio 90% or more, (practically complete withering))
[8]
  H: black-grass, weedkilling efficacy grade: 5 (weed kill ratio 90% or more, (practically complete withering))
[9]
  J: common wind-grass, weedkilling efficacy grade: 5 (weed kill ratio 90% or more, (practically complete withering))
[10]; treatment dosage 252 g/ha
  a: transplanted rice, effect on crop grade: 3 (weed kill ratio 40% or more, less than 70%)
[11]; treatment dosage 252 g/ha
  B: bulrush, weed kill grade: 5 (weed kill ratio 90% or more, (practically complete withering))
[12]; treatment dosage 252 g/ha
  A: barnyard grass, weed kill grade: 5 (weed kill ratio 90% or more, (practically complete withering))
[13]; treatment dosage 252 g/ha
  B (bulrush) weedkilling efficacy grade: 5 (weed kill ratio 90% or more, (practically complete withering))
[14]
  I: Italian ryegrass, weedkilling efficacy grade: 5 (weed kill ratio 90% or more, (practically complete withering))
[15]
  b: directly sown rice, effect on crop grade: 5 (weed kill ratio 90% or more, (practically complete withering))
[16]
  d: soybean, effect on crop grade: 3 (weed kill ratio 40% or more, less than 70%)
[17]
  D: crabgrass, weedkilling efficacy grade: 5 (weed kill ratio 90% or more, (practically complete withering))
[18]; treatment dosage 252 g/ha
  A (barnyard grass) weedkilling efficacy grade: 5 (weed kill ratio 90% or more, (practically complete withering))
[19]
  L: redroot pigweed, weedkilling efficacy grade: 5 (weed kill ratio 90% or more, (practically complete withering))
[20]; treatment dosage 252 g/ha
  C (oval-leafed pondweed) weedkilling efficacy grade: 5 (weed kill ratio 90% or more, (practically complete withering))
[21]
  K: Indian mallow, weedkilling efficacy grade: 5 (weed kill ratio 90% or more, (practically complete withering))
[22]
  F: barnyard grass, weedkilling efficacy grade: 5 (weed kill ratio 90% or more, (practically complete withering))
[23]; treatment dosage 252 g/ha
  C: oval-leafed pondweed, weed kill grade: 5 (weed kill ratio 90% or more, (practically complete withering))
[24]
  c: corn, effect on crop grade: 4 (weed kill ratio 70% or more, less than 90%)
[25]
  f: beet, effect on crop grade: 4 (weed kill ratio 70% or more, less than 90%)
